# Measured values as given in the NIST ThermoML archive (doi:10.1021/je400055v).
# ± gives the expanded uncertainty stated by the source.
# Conditions: Liquid, Vibrating tube method
smiles,measurement,setting,value
Cc1ccc(O)cc1 [4-methylphenol],mass density,"312.9 K, 1002 kPa",1019.4 ± 0.2 kg/m3
same,mass density,"312.9 K, 2016 kPa",1020 ± 0.2 kg/m3
same,mass density,"312.9 K, 3017 kPa",1020.6 ± 0.2 kg/m3
same,mass density,"312.9 K, 4016 kPa",1021.1 ± 0.2 kg/m3
same,mass density,"312.9 K, 5002 kPa",1021.7 ± 0.2 kg/m3
same,mass density,"312.9 K, 6010 kPa",1022.2 ± 0.2 kg/m3
same,mass density,"312.9 K, 7000 kPa",1022.8 ± 0.2 kg/m3
same,mass density,"312.9 K, 8006 kPa",1023.3 ± 0.2 kg/m3
same,mass density,"312.9 K, 9001 kPa",1023.9 ± 0.2 kg/m3
same,mass density,"312.9 K, 10002 kPa",1024.4 ± 0.2 kg/m3
same,mass density,"312.9 K, 11006 kPa",1024.9 ± 0.2 kg/m3
same,mass density,"312.9 K, 12002 kPa",1025.5 ± 0.2 kg/m3
same,mass density,"312.9 K, 13015 kPa",1026 ± 0.2 kg/m3
same,mass density,"312.9 K, 14007 kPa",1026.6 ± 0.2 kg/m3
same,mass density,"312.9 K, 15006 kPa",1027.1 ± 0.2 kg/m3
same,mass density,"312.9 K, 16019 kPa",1027.6 ± 0.2 kg/m3
same,mass density,"312.9 K, 17004 kPa",1028.1 ± 0.2 kg/m3
same,mass density,"312.9 K, 18011 kPa",1028.6 ± 0.2 kg/m3
same,mass density,"312.9 K, 19009 kPa",1029.2 ± 0.2 kg/m3
same,mass density,"312.9 K, 20005 kPa",1029.7 ± 0.2 kg/m3
same,mass density,"312.9 K, 21008 kPa",1030.2 ± 0.2 kg/m3
same,mass density,"312.9 K, 22004 kPa",1030.7 ± 0.2 kg/m3
same,mass density,"312.9 K, 23023 kPa",1031.2 ± 0.2 kg/m3
same,mass density,"312.9 K, 24004 kPa",1031.7 ± 0.2 kg/m3
same,mass density,"312.9 K, 25006 kPa",1032.2 ± 0.2 kg/m3
same,mass density,"322.78 K, 1019 kPa",1011.6 ± 0.2 kg/m3
same,mass density,"322.78 K, 2015 kPa",1012.2 ± 0.2 kg/m3
same,mass density,"322.78 K, 3002 kPa",1012.8 ± 0.2 kg/m3
same,mass density,"322.78 K, 4013 kPa",1013.4 ± 0.2 kg/m3
same,mass density,"322.78 K, 5011 kPa",1013.9 ± 0.2 kg/m3
same,mass density,"322.78 K, 6018 kPa",1014.5 ± 0.2 kg/m3
same,mass density,"322.78 K, 7022 kPa",1015.1 ± 0.2 kg/m3
same,mass density,"322.78 K, 8001 kPa",1015.7 ± 0.2 kg/m3
same,mass density,"322.78 K, 9015 kPa",1016.3 ± 0.2 kg/m3
same,mass density,"322.78 K, 10006 kPa",1016.8 ± 0.2 kg/m3
same,mass density,"322.78 K, 11002 kPa",1017.4 ± 0.2 kg/m3
same,mass density,"322.78 K, 12018 kPa",1017.9 ± 0.2 kg/m3
same,mass density,"322.78 K, 13002 kPa",1018.4 ± 0.2 kg/m3
same,mass density,"322.78 K, 14016 kPa",1019 ± 0.2 kg/m3
same,mass density,"322.78 K, 15001 kPa",1019.5 ± 0.2 kg/m3
same,mass density,"322.78 K, 16000 kPa",1020.1 ± 0.2 kg/m3
same,mass density,"322.78 K, 17001 kPa",1020.6 ± 0.2 kg/m3
same,mass density,"322.78 K, 18029 kPa",1021.2 ± 0.2 kg/m3
same,mass density,"322.78 K, 19015 kPa",1021.7 ± 0.2 kg/m3
same,mass density,"322.78 K, 20011 kPa",1022.2 ± 0.2 kg/m3
same,mass density,"322.78 K, 21022 kPa",1022.8 ± 0.2 kg/m3
same,mass density,"322.78 K, 22002 kPa",1023.3 ± 0.2 kg/m3
same,mass density,"322.78 K, 23006 kPa",1023.8 ± 0.2 kg/m3
same,mass density,"322.78 K, 24010 kPa",1024.4 ± 0.2 kg/m3
same,mass density,"322.78 K, 25023 kPa",1024.9 ± 0.2 kg/m3
same,mass density,"332.54 K, 1040 kPa",1003.7 ± 0.2 kg/m3
same,mass density,"332.54 K, 2019 kPa",1004.3 ± 0.2 kg/m3
same,mass density,"332.54 K, 3013 kPa",1005 ± 0.2 kg/m3
same,mass density,"332.54 K, 4019 kPa",1005.6 ± 0.2 kg/m3
same,mass density,"332.54 K, 5001 kPa",1006.2 ± 0.2 kg/m3
same,mass density,"332.54 K, 6001 kPa",1006.8 ± 0.2 kg/m3
same,mass density,"332.54 K, 7002 kPa",1007.5 ± 0.2 kg/m3
same,mass density,"332.54 K, 8041 kPa",1008.1 ± 0.2 kg/m3
same,mass density,"332.54 K, 9000 kPa",1008.7 ± 0.2 kg/m3
same,mass density,"332.54 K, 10001 kPa",1009.2 ± 0.2 kg/m3
same,mass density,"332.54 K, 11006 kPa",1009.7 ± 0.2 kg/m3
same,mass density,"332.54 K, 12001 kPa",1010.4 ± 0.2 kg/m3
same,mass density,"332.54 K, 13008 kPa",1010.9 ± 0.2 kg/m3
same,mass density,"332.54 K, 14004 kPa",1011.5 ± 0.2 kg/m3
same,mass density,"332.54 K, 15003 kPa",1012.1 ± 0.2 kg/m3
same,mass density,"332.54 K, 16015 kPa",1012.7 ± 0.2 kg/m3
same,mass density,"332.54 K, 17011 kPa",1013.3 ± 0.2 kg/m3
same,mass density,"332.54 K, 18014 kPa",1013.9 ± 0.2 kg/m3
same,mass density,"332.54 K, 19014 kPa",1014.4 ± 0.2 kg/m3
same,mass density,"332.54 K, 20009 kPa",1014.9 ± 0.2 kg/m3
same,mass density,"332.54 K, 21013 kPa",1015.4 ± 0.2 kg/m3
same,mass density,"332.54 K, 22007 kPa",1016 ± 0.2 kg/m3
same,mass density,"332.54 K, 23000 kPa",1016.6 ± 0.2 kg/m3
same,mass density,"332.54 K, 24001 kPa",1017.1 ± 0.2 kg/m3
same,mass density,"332.54 K, 25032 kPa",1017.7 ± 0.2 kg/m3
same,mass density,"342.37 K, 1001 kPa",995.7 ± 0.2 kg/m3
same,mass density,"342.37 K, 2002 kPa",996.4 ± 0.2 kg/m3
same,mass density,"342.37 K, 3004 kPa",997.1 ± 0.2 kg/m3
same,mass density,"342.37 K, 4025 kPa",997.7 ± 0.2 kg/m3
same,mass density,"342.37 K, 5036 kPa",998.2 ± 0.2 kg/m3
same,mass density,"342.37 K, 6032 kPa",998.8 ± 0.2 kg/m3
same,mass density,"342.37 K, 7001 kPa",999.3 ± 0.2 kg/m3
same,mass density,"342.37 K, 8020 kPa",999.9 ± 0.2 kg/m3
same,mass density,"342.37 K, 9003 kPa",1000.6 ± 0.2 kg/m3
same,mass density,"342.37 K, 10002 kPa",1001.3 ± 0.2 kg/m3
same,mass density,"342.37 K, 11036 kPa",1001.9 ± 0.2 kg/m3
same,mass density,"342.37 K, 12001 kPa",1002.6 ± 0.2 kg/m3
same,mass density,"342.37 K, 13020 kPa",1003.2 ± 0.2 kg/m3
same,mass density,"342.37 K, 14019 kPa",1003.9 ± 0.2 kg/m3
same,mass density,"342.37 K, 15007 kPa",1004.5 ± 0.2 kg/m3
same,mass density,"342.37 K, 16000 kPa",1005.1 ± 0.2 kg/m3
same,mass density,"342.37 K, 17022 kPa",1005.6 ± 0.2 kg/m3
same,mass density,"342.37 K, 18014 kPa",1006.2 ± 0.2 kg/m3
same,mass density,"342.37 K, 19033 kPa",1006.8 ± 0.2 kg/m3
same,mass density,"342.37 K, 20005 kPa",1007.4 ± 0.2 kg/m3
same,mass density,"342.37 K, 21005 kPa",1007.9 ± 0.2 kg/m3
same,mass density,"342.37 K, 22010 kPa",1008.4 ± 0.2 kg/m3
same,mass density,"342.37 K, 22962 kPa",1009 ± 0.2 kg/m3
same,mass density,"342.37 K, 24021 kPa",1009.7 ± 0.2 kg/m3
same,mass density,"342.37 K, 25017 kPa",1010.2 ± 0.2 kg/m3
same,mass density,"352.15 K, 1023 kPa",987.9 ± 0.2 kg/m3
same,mass density,"352.15 K, 2007 kPa",988.5 ± 0.2 kg/m3
same,mass density,"352.15 K, 3000 kPa",989.1 ± 0.2 kg/m3
same,mass density,"352.15 K, 4003 kPa",989.8 ± 0.2 kg/m3
same,mass density,"352.15 K, 5001 kPa",990.4 ± 0.2 kg/m3
same,mass density,"352.15 K, 6009 kPa",991.1 ± 0.2 kg/m3
same,mass density,"352.15 K, 7001 kPa",991.7 ± 0.2 kg/m3
same,mass density,"352.15 K, 8037 kPa",992.4 ± 0.2 kg/m3
same,mass density,"352.15 K, 9008 kPa",993 ± 0.2 kg/m3
same,mass density,"352.15 K, 10040 kPa",993.7 ± 0.2 kg/m3
same,mass density,"352.15 K, 11006 kPa",994.3 ± 0.2 kg/m3
same,mass density,"352.15 K, 12001 kPa",994.9 ± 0.2 kg/m3
same,mass density,"352.15 K, 13001 kPa",995.5 ± 0.2 kg/m3
same,mass density,"352.15 K, 14009 kPa",996.2 ± 0.2 kg/m3
same,mass density,"352.15 K, 15000 kPa",996.8 ± 0.2 kg/m3
same,mass density,"352.15 K, 16010 kPa",997.4 ± 0.2 kg/m3
same,mass density,"352.15 K, 17028 kPa",998 ± 0.2 kg/m3
same,mass density,"352.15 K, 18020 kPa",998.6 ± 0.2 kg/m3
same,mass density,"352.15 K, 19045 kPa",999.3 ± 0.2 kg/m3
same,mass density,"352.15 K, 20018 kPa",1000 ± 0.2 kg/m3
same,mass density,"352.15 K, 21038 kPa",1000.5 ± 0.2 kg/m3
same,mass density,"352.15 K, 22000 kPa",1001.1 ± 0.2 kg/m3
same,mass density,"352.15 K, 23065 kPa",1001.8 ± 0.2 kg/m3
same,mass density,"352.15 K, 24024 kPa",1002.4 ± 0.2 kg/m3
same,mass density,"352.15 K, 25039 kPa",1002.9 ± 0.2 kg/m3
same,mass density,"361.9 K, 1017 kPa",979.6 ± 0.2 kg/m3
same,mass density,"361.9 K, 1991 kPa",980.3 ± 0.2 kg/m3
same,mass density,"361.9 K, 3004 kPa",981 ± 0.2 kg/m3
same,mass density,"361.9 K, 4027 kPa",981.5 ± 0.2 kg/m3
same,mass density,"361.9 K, 4992 kPa",982.3 ± 0.2 kg/m3
same,mass density,"361.9 K, 6000 kPa",983.1 ± 0.2 kg/m3
same,mass density,"361.9 K, 7033 kPa",983.6 ± 0.2 kg/m3
same,mass density,"361.9 K, 8010 kPa",984.4 ± 0.2 kg/m3
same,mass density,"361.9 K, 9001 kPa",985 ± 0.2 kg/m3
same,mass density,"361.9 K, 9998 kPa",985.8 ± 0.2 kg/m3
same,mass density,"361.9 K, 10994 kPa",986.5 ± 0.2 kg/m3
same,mass density,"361.9 K, 11976 kPa",987 ± 0.2 kg/m3
same,mass density,"361.9 K, 12949 kPa",987.7 ± 0.2 kg/m3
same,mass density,"361.9 K, 14010 kPa",988.3 ± 0.2 kg/m3
same,mass density,"361.9 K, 15017 kPa",989 ± 0.2 kg/m3
same,mass density,"361.9 K, 15992 kPa",989.6 ± 0.2 kg/m3
same,mass density,"361.9 K, 16992 kPa",990.3 ± 0.2 kg/m3
same,mass density,"361.9 K, 18007 kPa",990.8 ± 0.2 kg/m3
same,mass density,"361.9 K, 19034 kPa",991.6 ± 0.2 kg/m3
same,mass density,"361.9 K, 19992 kPa",992.1 ± 0.2 kg/m3
same,mass density,"361.9 K, 21000 kPa",992.9 ± 0.2 kg/m3
same,mass density,"361.9 K, 22059 kPa",993.4 ± 0.2 kg/m3
same,mass density,"361.9 K, 23020 kPa",994.1 ± 0.2 kg/m3
same,mass density,"361.9 K, 24014 kPa",994.8 ± 0.2 kg/m3
same,mass density,"361.9 K, 25002 kPa",995.3 ± 0.2 kg/m3
